According to patent US10513567B2, “Polycations and methods of making and using thereof” (Georgia Tech Research Corporation, priority 2016, dated 2019):

Assay: Fragmentation (hydrolysis) of WCL pyridine adducts and oligocations in deuterated aqueous buffer followed by 1H NMR
Format: physicochemical
Experimental: The fragmentation of cationic adducts was followed by ^1H NMR in deuterated buffer, with the relative concentration of each species established by integration of unique resonances. Each adduct in Table 3 and Table 4 was thus examined in three independent runs.
Each adduct dinitrate was isolated, characterized, and heated at 50° C. in deuterated buffer; following the disappearance of the adduct by NMR, first-order rate constants of fragmentation were obtained.
Using the conditions of Table 4, three additional oligocations were prepared from the bis(pyridine) linkers as shown in Table 5. […] The stabilities of these compounds toward fragmentation under aqueous conditions were assessed by NMR in deuterated buffer, following the disappearance of the thiabicyclononane C—H resonance adjacent to the pyridine group (position g in FIG. 14) and the appearance of the corresponding resonance (4.3 ppm) for the diol product 4 (FIG. 6).

Compound | kfrag, pseudo first order fragmentation (50° C., deuterated buffer) | kfrag, pseudo first order fragmentation (37° C.) | krel (37° C., relative to 5i) | krel (50° C., relative to 5e)
COC(=O)c1ccc[n+](C2CCC3SC2CCC3[n+]2cccc(C(=O)OC)c2)c1.O=[N+]([O-])[O-].O=[N+]([O-])[O-] (centres unmarked) [Compound 5b, 2,6-di-3-methoxycarbonylpyridinium-9-thiabicyclo[3.3.1]nonane dinitrate] | (3.03 ± 0.38) × 10^−2 h^−1 |  |  | 
COC(=O)c1cc[n+](C2CCC3SC2CCC3[n+]2ccc(C(=O)OC)cc2)cc1.O=[N+]([O-])[O-].O=[N+]([O-])[O-] (centres unmarked) [Compound 5c, 2,6-di-4-methoxycarbonylpyridinium-9-thiabicyclo[3.3.1]nonane dinitrate] | (3.66 ± 0.33) × 10^−2 h^−1 | (0.16 ± 0.01) × 10^−2 h^−1 | 0.3 | 
NC(=O)c1ccc[n+](C2CCC3SC2CCC3[n+]2cccc(C(N)=O)c2)c1.O=[N+]([O-])[O-].O=[N+]([O-])[O-] (centres unmarked) [Compound 5d, 2,6-di-3-carbamylpyridinium-9-thiabicyclo[3.3.1]nonane dinitrate] | (3.18 ± 0.32) × 10^−2 h^−1 |  |  | 
NC(=O)c1cc[n+](C2CCC3SC2CCC3[n+]2ccc(C(N)=O)cc2)cc1.O=[N+]([O-])[O-].O=[N+]([O-])[O-] (centres unmarked) [Compound 5e, 2,6-di-4-carbamylpyridinium-9-thiabicyclo[3.3.1]nonane dinitrate] | (1.62 ± 0.10) × 10^−2 h^−1 |  |  | 1.00
Brc1ccc[n+](C2CCC3SC2CCC3[n+]2cccc(Br)c2)c1.O=[N+]([O-])[O-].O=[N+]([O-])[O-] (centres unmarked) [Compound 5f, 2,6-di-3-bromopyridinium-9-thiabicyclo[3.3.1]nonane dinitrate] | (6.59 ± 0.58) × 10^−2 h^−1 |  |  | 
FC(F)(F)c1ccc[n+](C2CCC3SC2CCC3[n+]2cccc(C(F)(F)F)c2)c1.O=[N+]([O-])[O-].O=[N+]([O-])[O-] (centres unmarked) [Compound 5g, 2,6-di-3-trifluoromethylpyridinium-9-thiabicyclo[3.3.1]nonane dinitrate] | (74.8 ± 5.4) × 10^−2 h^−1 | (5.87 ± 0.71) × 10^−2 h^−1 | 11 | 
N#Cc1ccc[n+](C2CCC3SC2CCC3[n+]2cccc(C#N)c2)c1.O=[N+]([O-])[O-].O=[N+]([O-])[O-] (centres unmarked) [Compound 5h, 2,6-di-3-cyanopyridinium-9-thiabicyclo[3.3.1]nonane dinitrate] | (10.8 ± 0.98) × 10^−2 h^−1 | (1.14 ± 0.16) × 10^−2 h^−1 | 2.1 | 
COc1cc(Br)c[n+](C2CCC3SC2CCC3[n+]2cc(Br)cc(OC)c2)c1.O=[N+]([O-])[O-].O=[N+]([O-])[O-] (centres unmarked) [Compound 5i, 2,6-di-3-bromo-5-methoxylpyridinium-9-thiabicyclo[3.3.1]nonane dinitrate] | (7.51 ± 0.53) × 10^−2 h^−1 | (0.55 ± 0.04) × 10^−2 h^−1 | 1 | 
NC(=O)c1cc(Br)c[n+](C2CCC3SC2CCC3[n+]2cc(Br)cc(C(N)=O)c2)c1.O=S(=O)([O-])C(F)(F)F.O=S(=O)([O-])C(F)(F)F (centres unmarked) [Compound 5j, 2,6-di-3-bromo-5-carbamylpyridinium-9-thiabicyclo[3.3.1]nonane ditriflate] |  | (9.34 ± 0.87) × 10^−2 h^−1 | 17 | 
COC(=O)c1cc(C(=O)OC)c[n+](C2CCC3SC2CCC3[n+]2cc(C(=O)OC)cc(C(=O)OC)c2)c1.O=S(=O)([O-])C(F)(F)F.O=S(=O)([O-])C(F)(F)F (centres unmarked) [Compound 5k, 2,6-di-3,5-dimethoxycarbonylpyridinium-9-thiabicyclo[3.3.1]nonane ditriflate] |  | (11.9 ± 1.13) × 10^−2 h^−1 | 22 | 
COC(=O)c1cc(Br)c[n+](C2CCC3SC2CCC3[n+]2cc(Br)cc(C(=O)OC)c2)c1.O=S(=O)([O-])C(F)(F)F.O=S(=O)([O-])C(F)(F)F (centres unmarked) [Compound 5l, 2,6-di-3-bromo-5-methoxycarbonylpyridinium-9-thiabicyclo[3.3.1]nonane ditriflate] |  | (10.9 ± 1.81) × 10^−2 h^−1 | 20 | 
